# Results reported in patent US8163771B2, “11 β-HSD1 modulators” (Exelixis, Inc., priority 2008, dated 2012).
# Target: T1, recombinant human 11 β-HSD1 (Homo sapiens, UniProt P28845)
# T1 construct: made in house; host or cells: E. coli
# Experiment: 11 β-HSD1 SPA Assay (Scintillation Proximity Assay)
# Assay type: biochemical
# Method in brief: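 Scintillation proximity read-out of cortisol formed from 40 nM [3H]cortisone by purified recombinant human enzyme (30-100 nM, E. coli) with 1 mM NADPH, pH7.4, 2 hours at room temperature; beads with cortisol antibody and glycyrrhetinic acid stop the reaction, read next day. IC50 derived from inhibition normalised to background and maximal wells.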
# T1 sequence (P28845 whole entry): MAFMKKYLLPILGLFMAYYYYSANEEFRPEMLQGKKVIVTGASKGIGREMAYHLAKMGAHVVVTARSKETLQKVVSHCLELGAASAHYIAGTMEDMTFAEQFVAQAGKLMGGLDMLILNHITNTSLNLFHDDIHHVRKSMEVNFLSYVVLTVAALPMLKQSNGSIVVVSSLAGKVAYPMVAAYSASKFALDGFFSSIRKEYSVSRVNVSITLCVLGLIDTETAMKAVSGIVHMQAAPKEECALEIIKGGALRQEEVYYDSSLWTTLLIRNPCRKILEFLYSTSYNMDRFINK
row,Compound,IC50 [nM]
1,"CC(C)(Oc1ccc(F)cc1C(F)(F)F)C(=O)N[C@H]1C[C@H]2CC[C@@H](C1)N2c1ccc(-c2nnn[nH]2)nc1 [Example 292, 2-{[4-fluoro-2-(trifiuoromethyl)phenyl]oxy}-2-methyl-N-{8-[6-(1H-tetrazol-5-yl)pyridin-3-yl]-8-azabicyclo[3.2.1]oct-3-endo-yl}propanamide]",< 200
2,"CC(C)(Oc1ccc(C(F)(F)F)cc1)C(=O)N[C@H]1C[C@H]2CC[C@@H](C1)N2c1ccc(S(C)(=O)=O)cc1 [Example 245, 2-methyl-N-{8-[4-(methylsulfonyl)phenyl]-8-azabicyclo[3.2.1]oct-3-endo-yl}-2-{[4-(trifluoromethyl)phenyl]oxy}propanamide]",< 2000
3,"CC(=O)c1ccc(N2[C@@H]3CC[C@H]2C[C@@H](NC(=O)C2(c4ccc(Cl)cc4)CC2)C3)nc1 [Example 57, N-[8-(5-acetylpyridin-2-yl)-8-azabicyclo[3.2.1]oct-3-endo-yl]-1-(4-chlorophenyl)cyclopropanecarboxamide]",< 200
4,"CC(C)(Oc1ccc(Cl)cc1Cl)C(=O)N[C@H]1C[C@H]2CC[C@@H](C1)N2c1ccc(NC(=O)NCC(F)(F)F)cn1 [Example 134, 2-[(2,4-dichlorophenyl)oxy]-2-methyl-N-{8-[5-({[(2,2,2-trifluoroethyl)amino]carbonyl}amino)pyridin-2-yl]-8-azabicyclo[3.2.1]oct-3-endo-yl}propanamide]",< 200
5,"CC(C)(Oc1ccc(Cl)cc1)C(=O)N[C@H]1C[C@H]2CC[C@@H](C1)N2c1ccc(S(C)(=O)=O)cn1 [Example 201, 2-[(4-chlorophenyl)oxy]-2-methyl-N-{8-[5-(methylsulfonyl)pyridin-2-yl]-8-azabicyclo[3.2.1]oct-3-endo-yl}propanamide]",< 200
6,"Nc1ccc(N2[C@@H]3CC[C@H]2C[C@@H](NC(=O)C2(c4ccc(Cl)cc4)CC2)C3)nc1 [Example 61, N-[8-(5-aminopyridin-2-yl)-8-azabicyclo[3.2.1]oct-3-endo-yl]-1-(4-chlorophenyl)cyclopropanecarboxamide]",< 200
7,"CC(C)(Oc1c(Cl)cc(F)cc1Cl)C(=O)N[C@H]1C[C@H]2CC[C@@H](C1)N2c1ccc(S(C)(=O)=O)cc1 [Example 239, 2-[(2,6-dichloro-4-fluorophenyl)oxy]-2-methyl-N-{8-[4-(methylsulfonyl)phenyl]-8-azabicyclo[3.2.1]oct-3-endo-yl}propanamide]",< 200
8,"CC(C)NC(=O)c1ccc(N2[C@@H]3CC[C@H]2C[C@@H](NC(=O)C(C)(C)Oc2ccc(Cl)cc2Cl)C3)nc1 [Example 54, 6-[3-endo-({2-[(2,4-dichlorophenyl)oxy]-2-methylpropanoyl}amino)-8-azabicyclo[3.2.1]oct-8-yl]-N-(1-methylethyl)pyridine-3-carboxamide]",< 200
9,"O=C(NC1CC1)c1ccc(N2[C@@H]3CC[C@H]2C[C@@H](NC(=O)C2(c4ccc(Cl)cc4)CC2)C3)cc1 [Example 62, 4-[3-endo-({[1-(4-chlorophenyl)cyclopropyl]carbonyl}amino)-8-azabicyclo[3.2.1]oct-8-yl]-N-cyclopropylbenzamide]",< 200
10,"CC(C)(Oc1cc(C(C)(C)O)c(F)cc1Cl)C(=O)N[C@H]1C[C@H]2CC[C@@H](C1)N2c1ccc(C(=O)NCC(F)F)cn1 [Example 472, 6-[3-endo-({2-[2-chloro-4-fluoro-5-(2-hydroxypropan-2-yl)phenoxy]-2-methylpropanoyl}amino)-8-azabicyclo[3.2.1]oct-8-yl]-N-(2,2-difluoroethyl)pyridine-3-carboxamide]",< 200
11,"CC(C)(Oc1ccc(F)cc1C(F)(F)F)C(=O)NC1CC2CCC(C1)N2c1ccc(C(=O)NC2CC2(F)F)cn1 (stereo not drawn) [Example 369, N-(2,2-difluorocyclopropyl)-6-[3-endo-({2-[4-fluoro-2-(trifluoromethyl)phenoxy]-2-methylpropanoyl}amino)-8-azabicyclo[3.2.1]oct-8-yl]pyridine-3-carboxamide]",< 200
12,"CCC(Oc1ccc(Cl)cc1)C(=O)N[C@H]1C[C@H]2CC[C@@H](C1)N2c1ccc(C(=O)NCCOC)cn1 (stereo partly drawn) [Example 81, 6-[3-endo-({2-[(4-chlorophenyl)oxy]butanoyl}amino)-8-azabicyclo[3.2.1]oct-8-yl]-N-[2-(methyloxy)ethyl]pyridine-3-carboxamide]",< 2000
13,"CC(C)(Oc1ccc(F)cn1)C(=O)N[C@H]1C[C@H]2CC[C@@H](C1)N2c1ccc(C(=O)NCC(F)(F)F)cn1 [Example 109, 6-[3-endo-({2-[(5-fluoropyridin-2-yl)oxy]-2-methylpropanoyl}amino)-8-azabicyclo[3.2.1]oct-8-yl]-N-(2,2,2-trifluoroethyl)pyridine-3-carboxamide]",< 200
14,"CC(C)(Oc1ccc(Cl)cc1CO)C(=O)N[C@H]1C[C@H]2CC[C@@H](C1)N2c1ccc(C(=O)NCC(F)(F)F)cn1 [Example 376, 6-[3-endo-({2-[4-chloro-2-(hydroxymethyl)phenoxy]-2-methylpropanoyl}amino)-8-azabicyclo[3.2.1]oct-8-yl]-N-(2,2,2-trifluoroethyl)pyridine-3-carboxamide]",< 200
15,"CC(C)(Oc1ccc(Cl)cc1-c1ccc(F)cc1)C(=O)N[C@H]1C[C@H]2CC[C@@H](C1)N2c1ccc(C(N)=O)cn1 [Example 277, 6-[3-endo-({2-[(5-chloro-4′-fluorobiphenyl-2-yl)oxy]-2-methylpropanoyl}amino)-8-azabicyclo[3.2.1]oct-8-yl]pyridine-3-carboxamide]",< 200
16,"CC(C)(Oc1ccc(Cl)cc1F)C(=O)N[C@H]1C[C@H]2CC[C@@H](C1)N2c1ccc(C(=O)NC2CC2)cn1 [Example 41, 6-[3-endo-({2-[(4-chloro-2-fluorophenyl)oxy]-2-methylpropanoyl}amino)-8-azabicyclo[3.2.1]oct-8-yl]-N-cyclopropylpyridine-3-carboxamide]",< 200
17,"CCN(CC)CCNC(=O)c1ccc(N2[C@@H]3CC[C@H]2C[C@@H](NC(=O)C(C)(C)Oc2ccc(Cl)cc2Cl)C3)nc1 [Example 377, 6-(3-endo-{[2-(2,4-dichlorophenoxy)-2-methylpropanoyl]amino}-8-azabicyclo[3.2.1]oct-8-yl)-N-[2-(diethylamino)ethyl]pyridine-3-carboxamide]",< 200
18,"CC(C)(Oc1ncc(Cl)cc1C(F)(F)F)C(=O)N[C@H]1C[C@H]2CC[C@@H](C1)N2c1ccc(C(=O)NCC(F)(F)F)cn1 [Example 273, 6-{3-endo-[(2-{[5-chloro-3-(trifluoromethyl)pyridin-2-yl]oxy}-2-methylpropanoyl)amino]-8-azabicyclo[3.2.1]oct-8-yl}-N-(2,2,2-trifluoroethyl)pyridine-3-carboxamide]",< 200
19,"CC(C)(Oc1ccc(Cl)cc1F)C(=O)N[C@H]1C[C@H]2CC[C@@H](C1)N2c1ccc(S(C)(=O)=O)cc1 [Example 223, 2-[(4-chloro-2-fluorophenyl)oxy]-2-methyl-N-{8-[4-(methylsulfonyl)phenyl]-8-azabicyclo[3.2.1]oct-3-endo-yl}propanamide]",< 200
20,"COc1ccc(OC(C)(C)C(=O)N[C@H]2C[C@H]3CC[C@@H](C2)N3c2ccc(S(C)(=O)=O)cc2)c(Cl)c1 [Example 254, 2-{[2-chloro-4-(methyloxy)phenyl]oxy}-2-methyl-N-{8-[4-(methylsulfonyl)phenyl]-8-azabicyclo[3.2.1]oct-3-endo-yl}propanamide]",< 200
